Source: patent publication US7848888B2, “Method for identification of biologically active agents” (Vitruvean LLC, priority 2002, dated 2010)

Assays:
[1] = test system: Drosophila expressing a mutant form of human Huntington (HD); experiment: Motion tracking with Drosophila model of Huntington disease; format: in vivo; settings: HD model with drug vs HD model without drug
Procedure: “Movement trait data” as used herein refers to the measurements made of one or more movement traits. Examples of “movement trait data” measurements include, but are not limited to X-pos, X-speed, speed, turning, stumbling, size, T-count, P-count, T-length, Cross150, Cross250, and F-count. Descriptions of these particular measurements are provided below. • X-Pos: The X-Pos score is calculated by concatenating the lists of x-positions for all trajectories and then computing the average of all values in the concatenated list. • X-Speed: The X-Speed score is calculated by first computing the lengths of the x-components of the speed vectors by taking the absolute difference in x-positions for subsequent frames. The resulting lists of x-speeds for all trajectories are then concatenated and the average x-speed for the concatenated list is computed. • Speed: The Speed score is calculated in the same way as the X-Speed score, but instead of only using the length of the x-component of the speed vector, the length of the whole vector is used. That is, [length]=square root of ([x-length]^2+[y-length]^2). • Turning: The Turning score is calculated in the same way as the Speed score, but instead of using the length of the speed vector, the absolute angle between the current speed vector and the previous one is used, giving a value between 0 and 90 degrees. • Stumbling: The Stumbling score is calculated in the same way as the Speed score, but instead of using the length of the speed vector, the absolute angle between the current speed vector and the direction of body orientation is used, giving a value between 0 and 90 degrees. • Size: The Size score is calculated in the same way as the Speed score, but instead of using the length of the speed vector, the size of the detected fly is used. • T-Count: The T-Count score is the number of trajectories detected in the movie. • P-Count: The P-Count score is the total number of points in the movie (i.e., the number of points in each trajectory, summed over all trajectories in the movie). • T-Length: The T-Length score is the sum of the lengths of all speed vectors in the movie, giving the total length all flies in the movie have walked. • Cross150: The Cross150 score is the number of trajectories that either crossed the line at x=150 in the negative x-direction (from bottom to top of the vial) during the movie, or that were already above that line at the start of the movie. […] In other words this score measures the number of detected flies that either managed to hold on to the tube or that managed to climb above the x=150 line within the length of the movie. • Cross250: The Cross250 score is equivalent to the Cross150 score, but uses a line at x=250 instead. • F-Count: The F-Count score counts the number of detected flies in each individual frame, and then takes the maximum of these values over all frames. […]
Drosophila expressing a mutant form of human Huntington (HD) have a functional deficit that is quantifiable, reproducible, and is suitable for automated high-throughput screening. Drosophila (or specimen) movements can be analyzed for various characteristics and/or traits. For example, statistics on the movements of the specimens, such as the x and y travel distance, path length, speed, turning, and stumbling, can be calculated. […]
Differences between the HD model+/−drug (HDAC inhibitor, TSA) and wild type (control)+/−drug (TSA) can clearly be detected using the motion tracking software. […]

[2] = test system: wild-type flies; experiment: Motion tracking with wild-type flies; format: in vivo, Drosophila; settings: flies fed 0.1M or 0.05M, compared to controls; FIG. 19
From the text: In the present exemplary application, to capture a movie of the movement of flies within specimen container 104, robot 114 grabs a specimen container 104 and positions it in front of camera 124. However, before positioning specimen container 104 in front of camera 124, robot 114 first raises specimen container 104 above a distance, such as about 2 centimeters, above base plate 106, then releases specimen container 104, which forces the flies within specimen container 104 to fall down to the bottom of specimen container 104. Robot 114 then grabs specimen container 104 again and positions it to be filmed by camera 124. In one exemplary embodiment, camera 124 captures about 40 consecutive frames at a frame rate of about 10 frames per second. It should be noted, however, that the number of frames captured and the frame rate used can vary. Additionally, the step of dropping specimen container 104 prior to filming can be omitted.
“Movement trait data” as used herein refers to the measurements made of one or more movement traits. Examples of “movement trait data” measurements include, but are not limited to X-pos, X-speed, speed, turning, stumbling, size, T-count, P-count, T-length, Cross150, Cross250, and F-count. Descriptions of these particular measurements are provided below. • X-Pos: The X-Pos score is calculated by concatenating the lists of x-positions for all trajectories and then computing the average of all values in the concatenated list. • X-Speed: The X-Speed score is calculated by first computing the lengths of the x-components of the speed vectors by taking the absolute difference in x-positions for subsequent frames. The resulting lists of x-speeds for all trajectories are then concatenated and the average x-speed for the concatenated list is computed. • Speed: The Speed score is calculated in the same way as the X-Speed score, but instead of only using the length of the x-component of the speed vector, the length of the whole vector is used. […]

[3] = test system: flies; settings: administered orally to flies; cited from earlier work

CC(/C=C/C(=O)NO)=C\[C@@H](C)C(=O)c1ccc(N(C)C)cc1 [TSA]
Speed score ([1]; p-values, FIG. 21B): do not yield significant values | Turning score ([1]; p-values, FIG. 21D): do not yield significant values | Stumbling score ([1]; p-values, FIG. 21F): do not yield significant values | T-Length score ([1]; p-values, FIG. 21H): best highlight the therapeutic effect | motor performance, Cross150 score (climbing ability) ([1]; FIG. 20, 21J): restore climbing ability for HD flies to almost the same level as for wt flies

[Cl-].[Li+] [LiCl, Lithium Chloride]
incidence of stumbling [2]: increased incidence | incidence of turning [2]: increased incidence | speed [2]: significant reduction

CC1(C)O[C@@H]2[C@@H](CO[C@@]3(COS(N)(=O)=O)OC(C)(C)O[C@@H]23)O1 [Topiramate]
seizure and mean recovery times following seizure [3]: reduce

O=C1NC(=O)C(c2ccccc2)(c2ccccc2)N1 [Phenytoin]
seizure and mean recovery times following seizure [3]: reduce

NCC1(CC(=O)O)CCCCC1 [Gabapentin]
seizure and mean recovery times following seizure [3]: reduce
